Results taken from PubChem BioAssay (NCI).
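These data come from cells grown in 96-well plates and exposed to compound for 48 hours at five concentrations. GI50 is the concentration that inhibits growth by half. TGI marks complete inhibition of growth.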

Assays:
Experiment in all cases: NCI anticancer screen, dose series, 48 h
A498 renal = tested on: A498 renal
ACHN renal = tested on: ACHN renal
COLO 205 colon = tested on: COLO 205 colon
DU-145 prostate = tested on: DU-145 prostate
MDA-MB-231 breast = tested on: MDA-MB-231 breast
NCI-H226 lung = tested on: NCI-H226 lung
NCI-H23 lung = tested on: NCI-H23 lung
PC-3 prostate = tested on: PC-3 prostate
SF-295 CNS = tested on: SF-295 CNS
SK-MEL-28 melanoma = tested on: SK-MEL-28 melanoma
SK-OV-3 ovarian = tested on: SK-OV-3 ovarian
SW-620 colon = tested on: SW-620 colon
TK-10 renal = tested on: TK-10 renal
UACC-257 melanoma = tested on: UACC-257 melanoma
UACC-62 melanoma = tested on: UACC-62 melanoma
UO-31 renal = tested on: UO-31 renal
786-0 renal = tested on: 786-0 renal
A549 NSCLC = tested on: A549 NSCLC
CAKI-1 renal = tested on: CAKI-1 renal
CCRF-CEM leukemia = tested on: CCRF-CEM leukemia
EKVX NSCLC = tested on: EKVX NSCLC
HCC-2998 colon = tested on: HCC-2998 colon
HCT-116 colon = tested on: HCT-116 colon
HCT-15 colon = tested on: HCT-15 colon
HL-60(TB) leukemia = tested on: HL-60(TB) leukemia
HOP-62 NSCLC = tested on: HOP-62 NSCLC
HOP-92 NSCLC = tested on: HOP-92 NSCLC
HT29 colon = tested on: HT29 colon
IGROV1 ovarian = tested on: IGROV1 ovarian
K-562 leukemia = tested on: K-562 leukemia
KM12 colon = tested on: KM12 colon
LOX IMVI melanoma = tested on: LOX IMVI melanoma
M14 melanoma = tested on: M14 melanoma
MALME-3M melanoma = tested on: MALME-3M melanoma
MCF7 breast = tested on: MCF7 breast
MDA-MB-435 = tested on: MDA-MB-435
MOLT-4 leukemia = tested on: MOLT-4 leukemia
NCI-H522 lung = tested on: NCI-H522 lung
NCI/ADR-RES ovarian = tested on: NCI/ADR-RES ovarian
OVCAR-3 ovarian = tested on: OVCAR-3 ovarian
OVCAR-4 ovarian = tested on: OVCAR-4 ovarian
OVCAR-5 ovarian = tested on: OVCAR-5 ovarian
OVCAR-8 ovarian = tested on: OVCAR-8 ovarian
RPMI-8226 leukemia = tested on: RPMI-8226 leukemia
RXF 393 renal = tested on: RXF 393 renal
SF-268 CNS = tested on: SF-268 CNS
SF-539 CNS = tested on: SF-539 CNS
SK-MEL-5 melanoma = tested on: SK-MEL-5 melanoma
SN12C renal = tested on: SN12C renal
SNB-19 CNS = tested on: SNB-19 CNS
SNB-75 CNS = tested on: SNB-75 CNS
SR leukemia = tested on: SR leukemia
T-47D breast = tested on: T-47D breast
U251 CNS = tested on: U251 CNS

Work on `NC(N)=N/N=C/c1c(-c2ccc(Cl)c(Cl)c2Cl)nc2sccn12` yielded a TGI (A498 renal) of 2.3 µM, a TGI (ACHN renal) greater than 100 µM and a TGI (COLO 205 colon) of 2.73 µM. It also gave a TGI (DU-145 prostate) of 3.12 µM, a TGI (MDA-MB-231 breast) of 2.47 µM and a TGI (NCI-H226 lung) of 3.56 µM. The TGI (NCI-H23 lung) was 2.65 µM, the TGI (PC-3 prostate) was greater than 100 µM and the TGI (SF-295 CNS) was 3.29 µM. The TGI (SK-MEL-28 melanoma) was 3.12 µM, the TGI (SK-OV-3 ovarian) was 3.33 µM and the TGI (SW-620 colon) was 3.07 µM. It also gave a TGI (TK-10 renal) of 2.7 µM, a TGI (UACC-257 melanoma) of 3.02 µM and a TGI (UACC-62 melanoma) of 2.81 µM. It also gave a TGI (UO-31 renal) of 2.82 µM.
`COc1ncnc2c1ncn2C/C(Br)=C(\Br)CCl` gave a GI50 (786-0 renal) of 3.38 µM, a TGI (786-0 renal) of 11.5 µM and a GI50 (A549 NSCLC) of 10.8 µM. The TGI (A549 NSCLC) was 25.9 µM, the GI50 (ACHN renal) was 2.14 µM and the TGI (ACHN renal) was 4.92 µM. The GI50 (CAKI-1 renal) was 1.87 µM, the TGI (CAKI-1 renal) was 3.87 µM and the GI50 (CCRF-CEM leukemia) was 2.73 µM. For the same compound, the TGI (CCRF-CEM leukemia) was 13.5 µM, the GI50 (COLO 205 colon) was 1.73 µM and the TGI (COLO 205 colon) was 3.18 µM. The GI50 (DU-145 prostate) was 5.31 µM, the TGI (DU-145 prostate) was 18.2 µM and the GI50 (EKVX NSCLC) was 16.3 µM. It also gave a TGI (EKVX NSCLC) of 29.9 µM, a GI50 (HCC-2998 colon) of 17.2 µM and a TGI (HCC-2998 colon) of 31.2 µM. For the same compound, the GI50 (HCT-116 colon) was 1.73 µM, the TGI (HCT-116 colon) was 3.49 µM and the GI50 (HCT-15 colon) was 1.84 µM. It also gave a TGI (HCT-15 colon) of 4.16 µM, a GI50 (HL-60(TB) leukemia) of 2.03 µM and a TGI (HL-60(TB) leukemia) of 6.32 µM. For the same compound, the GI50 (HOP-62 NSCLC) was 3.9 µM, the TGI (HOP-62 NSCLC) was 14.1 µM and the GI50 (HOP-92 NSCLC) was 4.08 µM. For the same compound, the TGI (HOP-92 NSCLC) was 16.4 µM, the GI50 (HT29 colon) was 1.63 µM and the TGI (HT29 colon) was 3.71 µM. The GI50 (IGROV1 ovarian) was 1.77 µM, the TGI (IGROV1 ovarian) was 4.86 µM and the GI50 (K-562 leukemia) was 3.29 µM. It also gave a TGI (K-562 leukemia) of 10.9 µM, a GI50 (KM12 colon) of 3.54 µM and a TGI (KM12 colon) of 13.4 µM. The GI50 (LOX IMVI melanoma) was 2.79 µM, the TGI (LOX IMVI melanoma) was 9.61 µM and the GI50 (M14 melanoma) was 1.82 µM. For the same compound, the TGI (M14 melanoma) was 4.14 µM, the GI50 (MALME-3M melanoma) was 1.49 µM and the TGI (MALME-3M melanoma) was 3.21 µM. The GI50 (MCF7 breast) was 1.43 µM, the TGI (MCF7 breast) was 3.06 µM and the GI50 (MDA-MB-231 breast) was 2.4 µM. For the same compound, the TGI (MDA-MB-231 breast) was 7.28 µM, the GI50 (MDA-MB-435) was 2.94 µM and the TGI (MDA-MB-435) was 11.5 µM. It also gave a GI50 (MOLT-4 leukemia) of 2.91 µM, a TGI (MOLT-4 leukemia) of 25.4 µM and a GI50 (NCI-H226 lung) of 2.82 µM. The TGI (NCI-H226 lung) was 9.38 µM, the GI50 (NCI-H23 lung) was 3.16 µM and the TGI (NCI-H23 lung) was 11.4 µM. The GI50 (NCI-H522 lung) was 0.875 µM, the TGI (NCI-H522 lung) was 2.25 µM and the GI50 (NCI/ADR-RES ovarian) was 6.12 µM. The TGI (NCI/ADR-RES ovarian) was 18.9 µM, the GI50 (OVCAR-3 ovarian) was 1.77 µM and the TGI (OVCAR-3 ovarian) was 3.22 µM. For the same compound, the GI50 (OVCAR-4 ovarian) was 1.61 µM, the TGI (OVCAR-4 ovarian) was 3.02 µM and the GI50 (OVCAR-5 ovarian) was 3.83 µM. It also gave a TGI (OVCAR-5 ovarian) of 15.2 µM, a GI50 (OVCAR-8 ovarian) of 3.01 µM and a TGI (OVCAR-8 ovarian) of 7.84 µM. For the same compound, the GI50 (PC-3 prostate) was 9.12 µM, the TGI (PC-3 prostate) was 23.3 µM and the GI50 (RPMI-8226 leukemia) was 3.19 µM. The TGI (RPMI-8226 leukemia) was 16.4 µM, the GI50 (RXF 393 renal) was 1.64 µM and the TGI (RXF 393 renal) was 3.06 µM. For the same compound, the GI50 (SF-268 CNS) was 1.96 µM, the TGI (SF-268 CNS) was 5.59 µM and the GI50 (SF-295 CNS) was 10.6 µM. For the same compound, the TGI (SF-295 CNS) was 23.3 µM, the GI50 (SF-539 CNS) was 2.17 µM and the TGI (SF-539 CNS) was 7.61 µM. It also gave a GI50 (SK-MEL-28 melanoma) of 2.62 µM, a TGI (SK-MEL-28 melanoma) of 8.62 µM and a GI50 (SK-MEL-5 melanoma) of 2.19 µM. It also gave a TGI (SK-MEL-5 melanoma) of 5.59 µM, a GI50 (SK-OV-3 ovarian) of 14.8 µM and a TGI (SK-OV-3 ovarian) of 28 µM. For the same compound, the GI50 (SN12C renal) was 2.44 µM, the TGI (SN12C renal) was 9.52 µM and the GI50 (SNB-19 CNS) was 12.1 µM. For the same compound, the TGI (SNB-19 CNS) was 24.5 µM, the GI50 (SNB-75 CNS) was 2.01 µM and the TGI (SNB-75 CNS) was 8.57 µM. The GI50 (SR leukemia) was 2.73 µM, the TGI (SR leukemia) was 12.2 µM and the GI50 (T-47D breast) was 2.37 µM. The TGI (T-47D breast) was 6.84 µM, the GI50 (TK-10 renal) was 2.54 µM and the TGI (TK-10 renal) was 7.64 µM. For the same compound, the GI50 (U251 CNS) was 1.74 µM, the TGI (U251 CNS) was 3.64 µM and the GI50 (UACC-257 melanoma) was 0.775 µM. For the same compound, the TGI (UACC-257 melanoma) was 3.9 µM, the GI50 (UACC-62 melanoma) was 2.65 µM and the TGI (UACC-62 melanoma) was 12 µM. It also gave a GI50 (UO-31 renal) of 2.41 µM and a TGI (UO-31 renal) of 10.6 µM.
